# Results from patent EP4796540A2, “N-SULFONAMIDE NITROGEN-CONTAINING FUSED HETEROCYCLIC COMPOUND, AND APPLICATION THEREOF” (priority 2023, dated 2025).
# Several values for one entry are separate records, joined by “and”; a condition that tells them apart may be missing. Identical values can stand only once.
# Legend:
# [1] = system: human gastric cancer NUGC-3 xenograft; experiment: In vivo efficacy study in human gastric cancer NUGC-3 xenograft mouse model; design: species or system NUNU mice; settings: mice; for Tumor volume (mm^3) (at 19 days): Mean ± SEM
# Method: 1. Experimental purpose: To test the in vivo anti-tumor activity of compounds in the subcutaneous human gastric cancer NUGC-3 xenograft model in female NUNU mice. 2. Experimental materials: Animals: 6 to 8 weeks old female NUNU mice; Reagents:
# Cpd-A vehicle: 0.2% HPC, 0.5% Tween80 in water (w/v/v); Cpd-2 vehicle: 5% DMSO/10% Solutol HS 15/85% pH 4.65 ± 0.10 acetate buffer.
# Cell culture: NUGC-3 cells were cultured in RPMI-1640 medium containing 10% FBS.
# Molding and grouping: NUGC-3 cells in the exponential growth phase (5 × 10^6) were harvested, resuspended in 0.2 mL of PBS and Matrigel (1:1), and then inoculated subcutaneously into the right flank of NUNU mice to establish a subcutaneous xenograft model. Mice were observed daily for healthy status and tumor growth after cell inoculation. On the 5th day after inoculation, 36 animals were selected, grouped, and the tumor volume of the animals in the group was approximately 150.0 mm^3. The study was divided into 6 groups, with 6 mice in each group, and the administration was performed on the same day (see Table 10).
# 4. Experimental design: Table 10 is the grouping and administration information for the efficacy experiment. Mice in the G1 group were orally administered vehicle control (5% DMSO/10% Solutol HS 15/85% pH 4.65 ± 0.10 acetate buffer) once a day for a total of 19 days. Mice in the G2 group were orally administered Cpd-A once a day at a dose of 50 mg/kg for a total of 19 days. Mice in the G3 group were orally administered Cpd-A once a day at a dose of 100 mg/kg for a total of 19 days. Mice in the G4 group were orally administered Cpd-2 once a day at a dose of 25 mg/kg for a total of 19 days. Mice in the G5 group were orally administered Cpd-2 once a day at a dose of 50 mg/kg for a total of 19 days. Mice in the G6 group were orally administered Cpd-2 once a day at a dose of 100 mg/kg for a total of 19 days. Table 10. In vivo efficacy study design of NUGC-3 xenograft mouse model
# Experimental observation: The health status and mortality of the animals were monitored daily. Routine checks included observing the effect of tumor growth and drug treatment on animals' normal behavior such as mobility, food and water consumption, body weight gain/loss, eye/hair matting and any other abnormal effect. The number of deaths and side effects of the animals in the group were recorded based on the number of the animals in each group. Clinical symptoms observed during the trial were recorded in the raw data. Tumor volume calculation formula: Tumor volume (mm^3) = 0.5 × (tumor long diameter × tumor short diameter^2). During the research process, the entire administration process as well as tumor and body weight measurements were conducted in a Laminar Flow Cabinet.
# Statistical analysis: Tumor volume and animal body weight results are expressed in Mean ± SEM. Tumor volumes between different groups were statistically compared and analyzed. All statistical analyses were completed in GraphPad Prism 8.0. The one-way ANOVA method was used to compare whether there was a significant difference in tumor volume or tumor weight between groups, where p ≥ 0.05 was considered as having no significant difference, p < 0.05 was considered as having a significant difference, and p < 0.001 was considered as having an extremely significant difference.
# [2] = system: p53 Y220C mutant; experiment: HTRF assay: compounds promoting the binding of p53 Y220C mutant with DNA; format: biochemical; settings: His-tagged p53 Y220C (94-312), biotin-labeled DNA
# Method: Homogeneous time-resolved fluorescence (HTRF) assay was used to measure the reactivation effect of compounds on the p53 Y220C mutant. The recombinant His-tagged p53 Y220C (94-312) used for HTRF assays was expressed in E. coli and purified to the purity of 90% through Ni-NTA column. The biotin-labeled DNA used for HTRF assays was synthesized by Pharmaron Inc, with the specific sequence of 5'-[…]-3' .
# The binding of recombinant His-tagged p53 Y220C protein and biotin-labeled DNA was measured using fluorescence resonance energy transfer (FRET). For FRET assays, binding between p53 mutants and DNA sequences was measured by detecting the fluorescence of the interaction between an anti-His antibody (Cisbio, 61HI2KLA) conjugated to Eu and d2-conjugated streptavidin (Cisbio, 610SADLF) bound to a biotin-labeled DNA molecule. Compounds were prepared into 2 mM stock solutions and serially diluted into 10 concentrations at a 1:3 ratio in DMSO. Each 200-fold working concentration compound was sequentially diluted to 4-fold working concentration. 4 µL of compound solution was transferred line by line to a 384-well assay plate using Echo, containing 2 replicates per column. 4 µL of p53 solution was added to the assay plate. 4 µL of biotin DNA solution was added to the assay plate, and then 4 µL of assay solution (His-Eu antibody and streptavidin-d2) was added to each well of the assay plate. The assay plate was incubated overnight and protected from light. Fluorescence was read on BMG (BMG LRBTECH).
# The ratio of each well was calculated (ratio_665 nm/615 nm-ratio_background). The activity % was calculated as follows: C = (Ave_Ac−Ave_Ba)/(Ave_Dc_Ave_Bd) [formula] R data = (A−Ave_Ba−C*D)/(D−Ave_Bd)*(Ave_Dc−Ave_Bd) [formula] Activity % = R data/Ave_VC*100. [formula] • A: fluorescence intensity of the sample at 665 nm; • D: fluorescence intensity of the sample at 615 nm; • Ba: fluorescence intensity of the plate background at 665 nm; • Bd: fluorescence intensity of the plate background at 615 nm; • Dc: fluorescence intensity of HIS-Eu background at 615 nm; • Ac: fluorescence intensity of streptavidin-d2 background at 665 nm; • VC: DMSO treatment group.
# SC150 was calculated using Graphpad 8.0 to fit the logarithm of activity% and compound concentration to a nonlinear regression (dose response-variable slope). Table 1: Activity of compounds promoting the binding of p53 Y220C mutant with DNA
smiles,measurement,setting,value
"[2H]C([2H])([2H])Oc1nc(C(=O)NS(C)(=O)=O)ccc1NCC#Cc1cc2c(N[C@@H]3CCN(C)C[C@@H]3F)cccn2c1CC(F)(F)F [Cpd-2, 5-((3-(8-(((3S,4R)-3-Fluoro-1-methylpiperidin-4-yl)amino)-3-(2,2,2-trifluoroethyl)indolizin-2-yl)prop-2-yn-1-yl)amino)-6-(methoxy-d3)-N-(methylsulfonyl)picolinamide]",TGI (%) (at 19 days),[1]; 25 mg/kg PO QD*19 Days,65.1%
same,Tumor volume (mm^3) (at 19 days),[1]; 25 mg/kg PO QD*19 Days,615.1 mm^3 and 615.1 ± 157.6 mm^3
same,TGI (%) (at 19 days),[1]; 50 mg/kg PO QD*19 Days,96.1%
same,Tumor volume (mm^3) (at 19 days),[1]; 50 mg/kg PO QD*19 Days,202.2 mm^3 and 202.2 ± 57.9 mm^3
same,TGI (%) (at 19 days),[1]; 100 mg/kg PO QD*19 Days,103.6%
same,Tumor volume (mm^3) (at 19 days),[1]; 100 mg/kg PO QD*19 Days,102.5 mm^3 and 102.5 ± 42.1 mm^3
same,SC150,[2],0.58 nM
